From patent US20230250253A1, “PLASTIC POLYMER BIOCONVERSION PROCESS” (GEORGIA STATE UNIVERSITY RESEARCH FOUNDATION, INC., priority 2020, published 2023)

Columns and labels:
[1] = test system: Yarrowia lipolytica ATCC strain 46482; experiment: Intracellular lipid quantification and GC/MS fatty acid profile, OP5 / PCOP5 medium; assay type: cell-based; details: added to OP5 medium at 0.75, 1.5 and 3 g L^−1
Description: Fermentation Optimization: For fermentation optimization experiments, pH, inoculum density, osmolarity, or carbon-nitrogen ratio were altered. For pH experiments, OP5 medium pH was adjusted to 4.0, 5.0, or 6.0 using 2.0 M H2SO4 or 4.0 M NaOH. A Corning 320 pH meter (Corning, USA) was used to measure pH. For starting inoculum density experiments, OP5 medium was inoculated at an inoculum density of either 1.0, 3.0, or 6.0. Aliquots of 1 ml were retrieved from Y. lipolytica overnight culture and inoculum density was measured via absorbance at 600 nm. Based on absorbance readings, a volume of cells corresponding to the desired inoculum density was retrieved from the overnight culture and centrifuged at 4,000 rpm. Pelleted cells were washed twice with 50 mM PBS solution and used to inoculate OP5 medium. […] After the selected parameters were altered, shake flask fermentations were carried out for 120 hours, after which cells were processed and biomass and lipid product formation were analyzed as described below. […]
Component media experiments were carried out in 500 ml Erlenmeyer flasks containing 50 ml medium, and Y. lipolytica was inoculated at an inoculum density of 1.0. […] The supernatant was decanted and cells washed twice with 50 mM PBS before being lyophilized, weighed as described above, and lipids extracted and quantified as described in the following section. […]

[2] = test system: Yarrowia lipolytica ATCC strain 46482; experiment: Y. lipolytica growth (biomass) in OP5 / PCOP5 medium, fermentation optimization; assay type: cell-based; details: added to OP5 medium at 0.75, 1.5 and 3 g L^−1
Description: Polypropylene Growth Medium Preparation: OP5 medium is prepared as follows. 125-ml flat-bottomed borosilicate flasks were used to pyrolyze either virgin PP pellets or sheared postconsumer PP in 3 g batches at 540° C. for 195 minutes. The pyrolysis oil (at 15 g L^−1) was combined with: 5.4 g L^−1 Tween-80@, 5 g L^−1 yeast nitrogen base, 2.5 g L^−1 KH2PO4, 2.5 g L^−1 yeast extract, and 1.25 g L^−1 MgSO4 7H2O. The mixture was emulsified with a hand-held food-grade homogenizer. To compensate for the lack of oleic acid as an emulsifier, the homogenization time of OP5 medium was increased from 90 seconds (mixing time for OP4 medium) to 3 minutes. The resulting homogenized medium was autoclaved for 30 min at 121° C. and 15 psi.
Cultures and Fermentation Conditions: Yarrowia lipolytica ATCC strain 46482 was the strain used in this work. Overnight cultures were prepared from 1 ml 60% glycerol stocks of Y. lipolytica stored at −80° C. […] 1 ml aliquots of overnight cultures were withdrawn and used to measure yeast growth via absorbance. […]
Growth Measurements: Y. lipolytica growth measurements were taken spectrophotometrically and gravimetric measurements. Y. lipolytica culture aliquots of 1 ml were withdrawn, and growth was measured via optical density at 600 nm using an Eppendorf 6131 Biophotometer (Eppendorf, USA). […]

Question: `[Cl-].[Na+]` [NaCl, sodium chloride] was tested. Which “Effect on fatty acid production or intracellular fatty acid content” value [1] did it give?
Answer: The value was “no significant impact”.

Question: And the “Effect on Y. lipolytica cell growth” value [2]?
Answer: Its value is “inhibited”.
